US20250215012A1, “IKZF2 DEGRADERS AND USES THEREOF” (REGENTS OF THE UNIVERSITY OF MICHIGAN, priority 2022, published 2025)

Molecular target: IKZF2 (Homo sapiens (Human), UniProt Q96SW2+Q9UKS7)
Experiment: IKZF2 HiBiT Assay (Jurkat-IKZF2-HiBiT cell line)
Assay type: cell-based
Settings: Jurkat-IKZF2-HiBiT cells, 24 hours; for DC50: read-out: HiBit assay degradation analysis DC50; for Dmax: read-out: HiBit assay degradation analysis Dmax
Summary of the method: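 IKZF2 degradation was assessed as HiBiT luminescence in Jurkat-IKZF2-HiBiT cells, using lytic detection after 24 h of compound treatment at 37 °C, 5% CO2.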

Chain of IKZF2 (Q9UKS7 whole entry): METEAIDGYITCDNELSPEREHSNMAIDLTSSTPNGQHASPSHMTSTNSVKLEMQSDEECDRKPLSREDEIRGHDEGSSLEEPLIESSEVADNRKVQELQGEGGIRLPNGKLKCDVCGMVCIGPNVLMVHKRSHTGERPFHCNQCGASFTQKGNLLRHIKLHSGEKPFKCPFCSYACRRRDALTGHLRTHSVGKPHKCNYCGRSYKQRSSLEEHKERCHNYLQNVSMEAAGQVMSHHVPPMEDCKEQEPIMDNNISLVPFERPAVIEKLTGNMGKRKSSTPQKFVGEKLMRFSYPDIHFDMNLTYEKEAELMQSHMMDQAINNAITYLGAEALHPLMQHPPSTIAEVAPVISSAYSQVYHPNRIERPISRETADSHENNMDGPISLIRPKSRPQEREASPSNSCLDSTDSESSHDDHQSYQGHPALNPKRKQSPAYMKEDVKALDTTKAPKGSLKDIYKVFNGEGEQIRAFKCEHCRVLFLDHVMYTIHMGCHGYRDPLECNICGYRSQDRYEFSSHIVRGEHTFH
Chain of IKZF2 (Q96SW2 whole entry): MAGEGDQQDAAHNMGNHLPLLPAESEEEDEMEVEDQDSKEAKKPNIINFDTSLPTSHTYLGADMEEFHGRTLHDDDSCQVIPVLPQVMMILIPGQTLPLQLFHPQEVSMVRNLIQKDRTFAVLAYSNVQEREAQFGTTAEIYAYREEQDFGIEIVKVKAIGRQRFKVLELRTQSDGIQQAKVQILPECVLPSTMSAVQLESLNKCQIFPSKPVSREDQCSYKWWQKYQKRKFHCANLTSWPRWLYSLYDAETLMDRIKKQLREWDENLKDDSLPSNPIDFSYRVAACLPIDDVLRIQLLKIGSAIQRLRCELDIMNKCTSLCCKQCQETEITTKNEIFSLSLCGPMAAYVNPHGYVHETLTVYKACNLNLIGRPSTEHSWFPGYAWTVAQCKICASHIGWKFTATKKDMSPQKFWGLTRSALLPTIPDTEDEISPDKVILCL
Chain of IKZF2 (Q16531 whole entry partner): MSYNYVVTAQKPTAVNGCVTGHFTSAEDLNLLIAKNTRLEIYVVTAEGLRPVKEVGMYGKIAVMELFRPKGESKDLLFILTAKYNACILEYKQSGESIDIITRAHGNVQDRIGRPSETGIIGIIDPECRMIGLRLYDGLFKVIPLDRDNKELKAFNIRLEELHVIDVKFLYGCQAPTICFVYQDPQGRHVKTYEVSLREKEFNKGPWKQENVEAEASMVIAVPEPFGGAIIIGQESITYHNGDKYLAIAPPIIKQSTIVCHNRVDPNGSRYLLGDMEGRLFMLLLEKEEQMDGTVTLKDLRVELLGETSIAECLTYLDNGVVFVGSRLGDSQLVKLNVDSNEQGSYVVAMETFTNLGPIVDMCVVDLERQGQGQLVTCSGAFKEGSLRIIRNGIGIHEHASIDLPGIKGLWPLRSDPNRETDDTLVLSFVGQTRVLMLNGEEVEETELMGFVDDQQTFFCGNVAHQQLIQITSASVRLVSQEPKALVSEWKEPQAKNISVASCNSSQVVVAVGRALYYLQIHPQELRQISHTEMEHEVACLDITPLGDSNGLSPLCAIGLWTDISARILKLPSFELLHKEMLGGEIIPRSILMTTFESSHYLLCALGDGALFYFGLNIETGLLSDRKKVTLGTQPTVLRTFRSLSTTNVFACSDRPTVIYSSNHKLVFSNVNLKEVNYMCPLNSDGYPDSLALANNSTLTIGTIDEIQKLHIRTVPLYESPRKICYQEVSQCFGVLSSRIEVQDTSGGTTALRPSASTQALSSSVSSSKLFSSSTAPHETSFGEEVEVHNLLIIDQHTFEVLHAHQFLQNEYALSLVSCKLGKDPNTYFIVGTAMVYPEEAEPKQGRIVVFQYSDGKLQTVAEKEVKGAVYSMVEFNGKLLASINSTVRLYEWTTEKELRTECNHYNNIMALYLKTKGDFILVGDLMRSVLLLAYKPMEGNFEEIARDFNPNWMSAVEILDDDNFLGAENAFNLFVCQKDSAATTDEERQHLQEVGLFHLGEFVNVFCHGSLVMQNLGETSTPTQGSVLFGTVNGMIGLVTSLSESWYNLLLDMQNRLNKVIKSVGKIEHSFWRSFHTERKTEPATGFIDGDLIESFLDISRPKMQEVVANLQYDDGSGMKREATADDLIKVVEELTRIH

SMILES	DC50 [nM]	Dmax [%]
Cc1nn(C)cc1-c1cccc(CN2CCC3(CC2)COc2c3ccc3c2CN([C@H]2CCC(=O)NC2=O)C3=O)c1 [Compound A283, (S)-3-(1′-(3-(1,3-dimethyl-1H-pyrazol-4-yl)benzyl)-6-oxo-6,8-dihydro-2H,7H-spiro[furo[2,3-e]isoindole-3,4′-piperidin]-7-yl)piperidine-2,6-dione]	50 to 200	60 to 80
O=C1CCC(N2Cc3c(ccc4c3OCC43CCN(Cc4ccc5[nH]cnc5c4)CC3)C2=O)C(=O)N1 (stereo not shown) [Compound A70, 3-(1′-((1H-benzo[d]imidazol-5-yl)methyl)-6-oxo-6,8-dihydro-2H,7H-spiro[furo[2,3-e]isoindole-3,4′-piperidin]-7-yl)piperidine-2,6-dione]	200 to 500	60 to 80
CN1CC2(CCN(Cc3cccc(-c4cnn(C)c4)c3)CC2)c2ccc3c(c21)CN(C1CCC(=O)NC1=O)C3=O (stereo not shown) [Compound A308, 3-(1′-methyl-1-(3-(1-methyl-1H-pyrazol-4-yl)benzyl)-6′-oxo-1′,2′,6′,8′-tetrahydro-7′H-spiro[piperidine-4,3′-pyrrolo[3,4-g]indol]-7′-yl)piperidine-2,6-dione]	> 500	< 40
N#Cc1ccc(CN2CCC3(CC2)COc2c3ccc3c2CN(C2CCC(=O)NC2=O)C3=O)cc1 (stereo not shown) [Compound A195, 4-((7-(2,6-dioxopiperidin-3-yl)-6-oxo-7,8-dihydro-2H,6H-spiro[furo[2,3-e]isoindole-3,4′-piperidin]-1′-yl)methyl)benzonitrile]	> 500	< 40
O=C1CCC(N2Cc3c(ccc4c3OCC43CCN(CC4CCCc5ccccc54)CC3)C2=O)C(=O)N1 (stereo not shown) [Compound A21, 3-(6-oxo-1′-((1,2,3,4-tetrahydronaphthalen-1-yl)methyl)-6,8-dihydro-2H,7H-spiro[furo[2,3-e]isoindole-3,4′-piperidin]-7-yl)piperidine-2,6-dione]	> 500	60 to 80
O=C1CCC(N2Cc3c(ccc4c3OCC43CCN(Cc4cnn(-c5ccc(F)cc5)c4)CC3)C2=O)C(=O)N1 (stereo not shown) [Compound A312, 3-(1′-((1-(4-fluorophenyl)-1H-pyrazol-4-yl)methyl)-6-oxo-6,8-dihydro-2H,7H-spiro[furo[2,3-e]isoindole-3,4′-piperidin]-7-yl)piperidine-2,6-dione]	> 500	40 to 60
O=C1CCC(N2Cc3c(ccc4c3OCC43CCN(Cc4ccn(-c5ccccc5F)n4)CC3)C2=O)C(=O)N1 (stereo not shown) [Compound A323, 3-(1′-((1-(2-fluorophenyl)-1H-pyrazol-3-yl)methyl)-6-oxo-6,8-dihydro-2H,7H-spiro[furo[2,3-e]isoindole-3,4′-piperidin]-7-yl)piperidine-2,6-dione]	> 500	< 40
O=C1CC[C@H](N2Cc3c(ccc4c3OCC43CCN(Cc4cccc(-c5ccn(C(F)F)n5)c4)CC3)C2=O)C(=O)N1 [Compound A289, (S)-3-(1′-(3-(1-(difluoromethyl)-1H-pyrazol-3-yl)benzyl)-6-oxo-6,8-dihydro-2H,7H-spiro[furo[2,3-e]isoindole-3,4′-piperidin]-7-yl)piperidine-2,6-dione]	< 50	60 to 80
O=C1CCC(N2Cc3c(ccc4c3OCC43CCN(Cc4cnn(CC5CCOCC5)c4)CC3)C2=O)C(=O)N1 (stereo not shown) [Compound A233, 3-(6-oxo-1′-((1-((tetrahydro-2H-pyran-4-yl)methyl)-1H-pyrazol-4-yl)methyl)-6,8-dihydro-2H,7H-spiro[furo[2,3-e]isoindole-3,4′-piperidin]-7-yl)piperidine-2,6-dione]	200 to 500	60 to 80
O=C1CCC(N2Cc3c(ccc4c3OCC43CCN(Cc4nncn4-c4ccccc4)CC3)C2=O)C(=O)N1 (stereo not shown) [Compound A253, 3-(6-oxo-1′-((4-phenyl-4H-1,2,4-triazol-3-yl)methyl)-6,8-dihydro-2H,7H-spiro[furo[2,3-e]isoindole-3,4′-piperidin]-7-yl)piperidine-2,6-dione]	> 500	< 40
O=C1CCC(N2Cc3c(ccc4c3OCC43CCN(Cc4cccc(-n5cccn5)c4)CC3)C2=O)C(=O)N1 (stereo not shown) [Compound A107, 3-(1′-(3-(1H-pyrazol-1-yl)benzyl)-6-oxo-6,8-dihydro-2H,7H-spiro[furo[2,3-e]isoindole-3,4′-piperidin]-7-yl)piperidine-2,6-dione]	< 50	60 to 80
O=C1CCC(N2Cc3c(ccc4c3OCC43CCN(Cc4cccc(Br)c4)CC3)C2=O)C(=O)N1 (stereo not shown) [Compound A91, 3-(1′-(3-bromobenzyl)-6-oxo-6,8-dihydro-2H,7H-spiro[furo[2,3-e]isoindole-3,4′-piperidin]-7-yl)piperidine-2,6-dione]	< 50	60 to 80
O=C1CCC(N2Cc3c(ccc4c3OCC43CCN(Cc4ccc5ncccc5c4)CC3)C2=O)C(=O)N1 (stereo not shown) [Compound A46, 3-(6-oxo-1′-(quinolin-6-ylmethyl)-6,8-dihydro-2H,7H-spiro[furo[2,3-e]isoindole-3,4′-piperidin]-7-yl)piperidine-2,6-dione]	200 to 500	40 to 60
O=C1CC[C@H](N2Cc3c(ccc4c3OCC43CCN(Cc4ccc5c(c4)NC(=O)C5)CC3)C2=O)C(=O)N1 [Compound A173, (S)-3-(6-oxo-1′-((2-oxoindolin-6-yl)methyl)-6,8-dihydro-2H,7H-spiro[furo[2,3-e]isoindole-3,4′-piperidin]-7-yl)piperidine-2,6-dione]	50 to 200	60 to 80
O=C1CCC(N2Cc3c(ccc4c3OCC43CCN(Cc4ccn(-c5ccccc5Cl)n4)CC3)C2=O)C(=O)N1 (stereo not shown) [Compound A321, 3-(1′-((1-(2-chlorophenyl)-1H-pyrazol-3-yl)methyl)-6-oxo-6,8-dihydro-2H,7H-spiro[furo[2,3-e]isoindole-3,4′-piperidin]-7-yl)piperidine-2,6-dione]	> 500	< 40
O=C1CCC(N2Cc3c(ccc4c3OCC43CCN(Cc4cnn(Cc5cccc(Cl)c5)c4)CC3)C2=O)C(=O)N1 (stereo not shown) [Compound A242, 3-(1′-((1-(3-chlorobenzyl)-1H-pyrazol-4-yl)methyl)-6-oxo-6,8-dihydro-2H,7H-spiro[furo[2,3-e]isoindole-3,4′-piperidin]-7-yl) piperidine-2,6-dione]	< 50	60 to 80
CNC(=O)c1cccc(CN2CCC3(CC2)COc2c3ccc3c2CN(C2CCC(=O)NC2=O)C3=O)c1 (stereo not shown) [Compound A95]	> 500	40 to 60
O=C1CCC(N2Cc3c(ccc4c3OCC43CCN(Cc4cnn(Cc5cccc(F)c5)c4)CC3)C2=O)C(=O)N1 (stereo not shown) [Compound A238, 3-(1′-((1-(3-fluorobenzyl)-1H-pyrazol-4-yl)methyl)-6-oxo-6,8-dihydro-2H,7H-spiro[furo[2,3-e]isoindole-3,4′-piperidin]-7-yl)piperidine-2,6-dione]	< 50	60 to 80
O=C1CCC(N2Cc3c(ccc4c3OCC43CCN(Cc4cc(F)cc5cc[nH]c45)CC3)C2=O)C(=O)N1 (stereo not shown) [Compound A110, 3-(1′-((5-fluoro-1H-indol-7-yl)methyl)-6-oxo-6,8-dihydro-2H,7H-spiro[furo[2,3-e]isoindole-3,4′-piperidin]-7-yl)piperidine-2,6-dione]	< 50	> 80
O=C1CCC(N2Cc3c(ccc4c3OCC43CCN(Cc4cnn(Cc5ccc(F)cc5)c4)CC3)C2=O)C(=O)N1 (stereo not shown) [Compound A237, 3-(1′-((1-(4-fluorobenzyl)-1H-pyrazol-4-yl)methyl)-6-oxo-6,8-dihydro-2H,7H-spiro[furo[2,3-e]isoindole-3,4′-piperidin]-7-yl)piperidine-2,6-dione]	50 to 200	60 to 80
O=C1CCC(N2Cc3c(ccc4c3COC43CCN(Cc4cccc(-c5cc[nH]n5)c4)CC3)C2=O)C(=O)N1 (stereo not shown) [Compound A260, 3-(1′-(3-(1H-pyrazol-3-yl)benzyl)-6-oxo-6,8-dihydrospiro[furo[3,4-e]isoindoline-3,4′-piperidin]-7(1H)-yl)piperidine-2,6-dione]	> 500	40 to 60
Cc1c2ccc(CN3CCC4(CC3)COc3c4ccc4c3CN([C@H]3CCC(=O)NC3=O)C4=O)cc2nn1C [Compound A295, (S)-3-(1′-((2,3-dimethyl-2H-indazol-6-yl)methyl)-6-oxo-6,8-dihydro-2H,7H-spiro[furo[2,3-e]isoindole-3,4′-piperidin]-7-yl)piperidine-2,6-dione]	< 50	60 to 80
O=C1CCC(N2Cc3c(ccc4c3OCC43CCN(Cc4cccc(OCc5ccccn5)c4)CC3)C2=O)C(=O)N1 (stereo not shown) [Compound A135, 3-(6-oxo-1′-(3-(pyridin-2-ylmethoxy)benzyl)-6,8-dihydro-2H,7H-spiro[furo[2,3-e]isoindole-3,4′-piperidin]-7-yl)piperidine-2,6-dione]	< 50	60 to 80
O=C1CCC(N2Cc3c(ccc4c3OCC43CCN(Cc4ccc5cnccc5c4)CC3)C2=O)C(=O)N1 (stereo not shown) [Compound A65, 3-(1′-(isoquinolin-6-ylmethyl)-6-oxo-6,8-dihydro-2H,7H-spiro[furo[2,3-e]isoindole-3,4′-piperidin]-7-yl)piperidine-2,6-dione]	> 500	40 to 60
O=C1CCC(N2Cc3c(ccc4c3OCC43CCN(Cc4cnn(Cc5ccc(Cl)cc5)c4)CC3)C2=O)C(=O)N1 (stereo not shown) [Compound A241, 3-(1′-((1-(4-chlorobenzyl)-1H-pyrazol-4-yl)methyl)-6-oxo-6,8-dihydro-2H,7H-spiro[furo[2,3-e]isoindole-3,4′-piperidin]-7-yl)piperidine-2,6-dione]	< 50	60 to 80
O=C1CCC(N2Cc3c(ccc4c3OCC43CCN(Cc4ccc5[nH]ncc5c4)CC3)C2=O)C(=O)N1 (stereo not shown) [Compound A198, 3-(1′-((1H-indazol-5-yl)methyl)-6-oxo-6,8-dihydro-2H,7H-spiro[furo[2,3-e]isoindole-3,4′-piperidin]-7-yl)piperidine-2,6-dione]	200 to 500	60 to 80
